Measured values reported in patent US12275731B2, “Azaindole inhibitors of wild-type and mutant forms of LRRK2” (DANA-FARBER CANCER INSTITUTE, INC., priority 2018, dated 2025).

Tests used:
Assay in all cases: KinomeScan profiling
Assay type in all cases: binding
BRSK1 = target: T1, BRSK1 (Homo sapiens, UniProt Q8TDC3); details: BRSK1, 1 μM; read-out: % control
T1 sequence (Q8TDC3 1-778): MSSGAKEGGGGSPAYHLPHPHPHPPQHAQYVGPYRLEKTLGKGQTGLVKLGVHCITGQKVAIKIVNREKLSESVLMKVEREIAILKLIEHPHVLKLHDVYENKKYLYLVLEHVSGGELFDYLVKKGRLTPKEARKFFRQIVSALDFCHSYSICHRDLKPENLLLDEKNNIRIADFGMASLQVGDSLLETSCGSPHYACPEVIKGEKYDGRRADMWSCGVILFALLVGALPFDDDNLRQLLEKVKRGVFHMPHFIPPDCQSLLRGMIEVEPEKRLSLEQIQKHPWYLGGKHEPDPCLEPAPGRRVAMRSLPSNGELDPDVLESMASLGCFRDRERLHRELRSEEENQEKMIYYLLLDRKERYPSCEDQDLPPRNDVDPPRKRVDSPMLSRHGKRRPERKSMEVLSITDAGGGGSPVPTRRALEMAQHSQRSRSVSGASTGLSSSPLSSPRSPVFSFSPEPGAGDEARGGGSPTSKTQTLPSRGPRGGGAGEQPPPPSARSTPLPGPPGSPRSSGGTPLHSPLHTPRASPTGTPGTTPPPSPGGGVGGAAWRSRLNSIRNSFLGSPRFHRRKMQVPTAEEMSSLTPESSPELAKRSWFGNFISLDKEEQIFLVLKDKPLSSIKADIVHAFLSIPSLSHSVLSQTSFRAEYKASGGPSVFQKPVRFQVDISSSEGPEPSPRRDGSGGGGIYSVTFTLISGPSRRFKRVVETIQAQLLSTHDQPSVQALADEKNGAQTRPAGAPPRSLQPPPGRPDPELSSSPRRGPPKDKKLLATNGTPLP
Method in brief: (§1)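 Test agents were profiled at a single concentration of 1 μM (DMSO vehicle) on a near-complete set of 468 kinases. Signal is reported relative to vehicle (100%) and a fully displacing control (0%).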

ACVR2B = target: T2, ACVR2B (Homo sapiens, UniProt Q13705); details: read-out: % control
T2 construct: purchased KinomeScan®
Method in brief: as §1

NEK9 = target: T3, NEK9 (Homo sapiens, UniProt Q8TD19); details: NEK9, 1 μM; read-out: % control
T3 sequence (Q8TD19 1-979): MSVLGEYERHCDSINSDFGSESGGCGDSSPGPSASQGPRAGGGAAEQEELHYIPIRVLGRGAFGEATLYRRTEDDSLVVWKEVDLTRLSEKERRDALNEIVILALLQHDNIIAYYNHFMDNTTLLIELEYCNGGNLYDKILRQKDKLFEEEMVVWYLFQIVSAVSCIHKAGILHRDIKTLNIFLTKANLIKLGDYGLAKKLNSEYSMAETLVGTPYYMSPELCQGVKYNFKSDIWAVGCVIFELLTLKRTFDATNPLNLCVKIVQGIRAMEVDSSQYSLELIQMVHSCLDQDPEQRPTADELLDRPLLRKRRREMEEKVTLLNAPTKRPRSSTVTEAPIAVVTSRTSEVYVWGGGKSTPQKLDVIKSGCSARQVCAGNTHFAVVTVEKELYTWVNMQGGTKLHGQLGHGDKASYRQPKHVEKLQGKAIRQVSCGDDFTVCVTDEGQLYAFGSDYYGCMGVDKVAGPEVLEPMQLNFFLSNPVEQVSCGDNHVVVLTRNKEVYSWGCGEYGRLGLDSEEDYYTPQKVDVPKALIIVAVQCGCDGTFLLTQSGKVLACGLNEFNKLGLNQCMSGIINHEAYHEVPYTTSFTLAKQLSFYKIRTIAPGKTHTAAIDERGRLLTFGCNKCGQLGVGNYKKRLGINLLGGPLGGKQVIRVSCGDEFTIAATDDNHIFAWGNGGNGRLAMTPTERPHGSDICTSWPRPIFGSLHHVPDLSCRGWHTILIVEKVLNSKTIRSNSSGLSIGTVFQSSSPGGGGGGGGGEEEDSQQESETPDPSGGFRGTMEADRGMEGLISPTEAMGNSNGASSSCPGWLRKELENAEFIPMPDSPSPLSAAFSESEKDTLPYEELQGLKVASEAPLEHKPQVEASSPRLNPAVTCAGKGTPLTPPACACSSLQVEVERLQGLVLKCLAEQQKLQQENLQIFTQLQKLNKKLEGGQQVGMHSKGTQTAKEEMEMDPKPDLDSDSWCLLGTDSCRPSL
Method in brief: as §1

PRKD2 = target: T4, PRKD2 (Homo sapiens, UniProt Q9BZL6); details: PRKD2, 1 μM; read-out: % control
T4 sequence (Q9BZL6 1-878): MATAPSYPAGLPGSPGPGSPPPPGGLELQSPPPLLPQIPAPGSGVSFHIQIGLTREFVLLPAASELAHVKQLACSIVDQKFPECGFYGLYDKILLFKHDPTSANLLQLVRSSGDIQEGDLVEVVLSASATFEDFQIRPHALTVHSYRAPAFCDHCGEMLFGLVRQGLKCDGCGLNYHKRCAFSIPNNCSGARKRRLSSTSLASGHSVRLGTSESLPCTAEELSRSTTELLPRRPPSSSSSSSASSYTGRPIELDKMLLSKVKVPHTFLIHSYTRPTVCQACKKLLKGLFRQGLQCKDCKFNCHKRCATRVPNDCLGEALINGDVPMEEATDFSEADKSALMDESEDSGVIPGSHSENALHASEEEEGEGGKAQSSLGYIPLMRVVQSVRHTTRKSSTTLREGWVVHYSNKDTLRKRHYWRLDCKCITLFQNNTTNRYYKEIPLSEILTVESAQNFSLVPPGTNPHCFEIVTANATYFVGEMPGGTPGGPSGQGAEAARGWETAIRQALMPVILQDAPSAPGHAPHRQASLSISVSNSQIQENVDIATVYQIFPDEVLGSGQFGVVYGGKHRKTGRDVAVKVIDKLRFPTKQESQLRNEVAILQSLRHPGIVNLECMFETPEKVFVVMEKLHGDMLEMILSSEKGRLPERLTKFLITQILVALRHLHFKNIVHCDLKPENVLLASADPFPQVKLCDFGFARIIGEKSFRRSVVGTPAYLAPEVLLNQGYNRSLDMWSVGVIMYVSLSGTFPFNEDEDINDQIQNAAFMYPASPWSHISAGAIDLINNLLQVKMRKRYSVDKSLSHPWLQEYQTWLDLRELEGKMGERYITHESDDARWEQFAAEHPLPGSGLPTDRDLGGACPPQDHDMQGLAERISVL
Method in brief: as §1

T2 sequence (Q13705 19-512): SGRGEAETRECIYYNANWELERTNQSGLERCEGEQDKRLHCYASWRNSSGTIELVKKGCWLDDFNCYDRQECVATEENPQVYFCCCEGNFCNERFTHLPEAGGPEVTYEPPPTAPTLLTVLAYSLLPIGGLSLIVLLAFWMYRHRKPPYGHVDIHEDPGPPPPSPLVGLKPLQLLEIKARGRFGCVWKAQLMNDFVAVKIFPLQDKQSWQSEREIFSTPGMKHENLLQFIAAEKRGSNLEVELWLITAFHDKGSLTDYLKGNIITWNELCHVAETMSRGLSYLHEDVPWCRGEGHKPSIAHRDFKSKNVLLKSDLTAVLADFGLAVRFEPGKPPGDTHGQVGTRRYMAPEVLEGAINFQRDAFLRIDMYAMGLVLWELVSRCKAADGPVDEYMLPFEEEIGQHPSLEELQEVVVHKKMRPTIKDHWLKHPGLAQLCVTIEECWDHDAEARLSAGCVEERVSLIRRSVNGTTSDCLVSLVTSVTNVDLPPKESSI

Row | SMILES | remaining binding at 1 µM (BRSK1) [%] | remaining binding at 1 µM (ACVR2B) [%] | remaining binding at 1 µM (NEK9) [%] | remaining binding at 1 µM (PRKD2) [%]
1 | CNc1c(-c2cnn([C@H]3CCN(C(C)=O)C[C@@H]3F)c2)cnc2[nH]cc(Cl)c12 [Compound 77, 1-((3S,4S)-4-(4-(3-chloro-4-(methylamino)-1H-pyrrolo[2,3-b]pyridin-5-yl)-1H-pyrazol-1-yl)-3-fluoropiperidin-1-yl)ethan-1-one] | 100 | 77 | 100 | 90
2 | O=C(c1ccc(-c2cnc3[nH]cc(Cl)c3c2NC2CCCC2)cc1)N1CCC(N2CCOCC2)CC1 [Compound 101, (4-(3-chloro-4-(cyclopentylamino)-1H-pyrrolo[2,3-b]pyridin-5-yl)phenyl)(4-morpholinopiperidin-1-yl)methanone] | 100 | 100 | 98 | 59
3 | CNc1c(-c2ccc(C(=O)N3CCC(N4CCOCC4)CC3)cc2)cnc2[nH]cc(Cl)c12 [Compound 96, (4-(3-chloro-4-(methylamino)-1H-pyrrolo[2,3-b]pyridin-5-yl)phenyl)(4-morpholinopiperidin-1-yl)methanone] | 100 | 91 | 100 | 13
